Laboratory results taken from patent US6773897B2, “Method of predicting the clinical response to chemotherapeutic treatment with alkylating agents” (The Johns Hopkins University School of Medicine, priority 2000, dated 2004).
Like-named read-outs stand apart in the source and are kept apart here.

Experiments:
[1] = test system: grade III or IV gliomas (anaplastic astrocytoma, glioblastoma multiforme); test: Clinical response, survival and time to progression of gliomas treated with carmustine, by MGMT promoter methylation status; assay type: in vivo, human
Procedure: The annealing temperature was 59° C.
Contingency tables were analyzed by Fisher's exact test.
Specimens of brain tumors from 47 consecutive subjects referred to the University Hospital of Navarre, in Pamplona, Spain, between April 1993 and November 1998 were studied. All the subjects provided written informed consent. […] Subjects were 38 to 70 years old (median age at diagnosis, 55 years); 30 were men, and 17 were women. Tumor specimens were obtained by resection or biopsy performed before the initiation of treatment with radiation and chemotherapy and were immediately frozen and stored at −80° C. All subjects were treated with intraarterial cisplatin (50 mg per square meter of body-surface area), whole-brain radiotherapy, and a median of three courses of intravenous carmustine (1,3-bis(2-chloroethyl)-1-nitrosourea, or BCNU; 100 mg per square meter) given at four-week intervals. Fifteen of the subjects also underwent autologous bone marrow transplantation plus high-dose chemotherapy treatment with three doses of intravenous carmustine (300 mg per square meter) per day and one dose of intraarterial cisplatin (100 mg)
The response to treatment was evaluated after the subjects had completed therapy. A complete response was defined as the absence of any evidence of the tumor on computed tomographic (CT) and magnetic resonance imaging (MRI) scans, with no need for steroid treatment and an improvement in the subject's general condition. Subjects with persistent CT abnormalities but with more than a 50 percent reduction in both the diameter and the volume of the tumor, a reduced need for steroid treatment, and a stabilized neurologic condition were considered to have a partial response. The disease was considered to have progressed if both the diameter and volume of the tumor increased by 25 percent or more of the initial measurements, if a new lesion was evident on CT or MRI scans, or if the subject's neurologic condition worsened and required an increased dose of steroids.
Forty-seven newly diagnosed grade III or IV gliomas (classified as anaplastic astrocytoma in 18 subjects and as glioblastoma multiforme in 29) were analyzed. Methylation of the MGMT promoter was found in 19 of the 47 tumors (40 percent) a frequency similar to that found in a previous study (Estellar, 1999, supra) and consistent with that in other reports (Silber et al., Cancer Res 1993; 53:3416-3420; and Silber et al., Cancer Res 1998; 58:1068-1073). Methylation was not associated with the subject's age, the Karnofsky score for performance status, or the grade of the tumor (P>0.3 for each comparison).

[2] = target: T1, MGMT (Homo sapiens, UniProt P16455); details: substrate for MGMT; cited from earlier work
T1 sequence (P16455 1-207): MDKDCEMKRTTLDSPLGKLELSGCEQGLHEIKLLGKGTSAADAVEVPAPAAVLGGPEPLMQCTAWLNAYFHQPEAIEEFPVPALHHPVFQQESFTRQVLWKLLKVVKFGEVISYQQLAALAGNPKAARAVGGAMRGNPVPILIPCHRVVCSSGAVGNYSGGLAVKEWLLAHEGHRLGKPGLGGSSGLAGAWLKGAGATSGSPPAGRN

[3] = target: T1, MGMT; details: cited from earlier work
[4] = test system: diffuse large B-cell lymphoma (B-DLCL)
Procedure: DNA was extracted according to standard protocols known to those of skill in the art (see, e.g., Sambrook et al., Molecular Cloning: a Laboratory Manual, 2nd Ed.; Cold Spring Harbor Laboratory Press, Plainview, N.Y., 1998, herein incorporated by reference). Methylation patterns in the CpG island of MGMT were determined by chemical modification of unmethylated, but not methylated, cytosines to uracil. Methylation-specific polymerase chain reaction (PCR) was performed with primers specific for either methylated or the modified unmethylated DNA, as previously described (Esteller, et al. Cancer Res 1999; 59:793-797; incorporated herein by reference in its entirety; and Herman et al. Proc Natl Acad Sci USA 1996;93:9821-9826; incorporated herein by reference in its entirety). DNA (1 μg) was denatured with sodium hydroxide and modified with sodium bisulfite. DNA samples were then purified with the Wizard DNA purification resin (Promega, Madison, Wis.), again treated with sodium hydroxide, precipitated with ethanol, and resuspended in water. Primer sequences for the unmethylated reaction were 5′[…]3′ (forward primer; SEQ ID NO:1) and 5′[…]3′ (reverse primer; SEQ ID NO:2), and for the methylated reaction they were 5′[…]3′ (forward primer; SEQ ID NO:3) and 5′[…]3′ (reverse primer; SEQ ID NO:4). The annealing temperature was 59° C. Placental DNA treated in vitro with Sss I methyltransferase (New England Biolabs, Beverly, Mass.) was used as a positive control for methylated alleles of MGMT, and DNA from normal lymphocytes was used as a negative control. Controls without DNA were used for each set of methylation-specific PCR assays. Ten microliters of each 50-μl methylation-specific PCR product was loaded directly onto nondenaturing 6 percent polyacrylamide gels, stained with ethidium bromide, and examined under ultraviolet illumination.
Continuous variables were compared with the use of Student's t-test. Contingency tables were analyzed by Fisher's exact test. Disease-free and overall survival curves were estimated by the Kaplan-Meier method and were compared with the use of the log-rank test. Multivariate survival analyses were performed with the Cox proportional-hazards model, and proportional-hazards assumptions were checked with the use of Schoenfeld residuals and graphic methods. Descriptive or stratified analyses always preceded parametric modeling in order to confirm that the assumptions underlying the models were met. The results are reported as two-sided P values with 95 percent confidence intervals. Analyses were performed with the use of JMP software (version 3.1, SAS Institute, Cary, N.C.) and Stata software (version 6.0, Stata, College Station, Tex.).
Clinical follow-up was obtained until Aug. 31, 1999 or until death. […] Diagnosis was based on histopathology, immunophenotypic analysis of cell surface markers, and immunogenotypic analysis of immunoglobulin gene rearrangement. The histopathologic definition of B-DLCL was according to the REAL classification (Harris N L, et al., Blood. 1994;84:1361-92). Subjects positive for human immunodeficiency virus were not included in the study. Staging included routine blood chemistry tests; blood cell counts and differential; EKG; chest x-ray; computed tomography of chest, abdomen and pelvis; and bilateral bone marrow biopsy in all subjects. Disease stage was assessed according to Ann Arbor criteria (Carbone P P, et al., Cancer Res. 1971;31:1860-1). The International Prognostic […] (IPI) was calculated as described (The International Non-Hodgkin's Lymphoma Prognostic Factors Project. A predictive model for aggressive non-Hodgkin's lymphoma. N Engl J Med. 1993;329:987-94), with subjects classified as Low, Low-Intermediate, High-Intermediate, and High risk.
Treatment varied, depending on stage of disease, date of diagnosis, institution and prognostic factors.

[5] = subjects with MGMT methylation (N=30)
[6] = subjects without methylation (N=54)

## O=NN(CCCl)C(=O)NCCCl [carmustine, 1,3-bis(2-chloroethyl)-1-nitrosourea]
[1]; lack of methylation vs methylation, univariate, 95% CI 3.0 to 42.7
  risk of death, hazard ratio: 9.5
[1]; methylated (N=19)
  Complete response, % (95% CI): 11 (1-33) %
  No Change, % (95% CI): 16 (3-38) %
  Partial response, % (95% CI): 52 (29-76) %
  Progression, % (95% CI): 21 (6-44) %
[1]; methylated gliomas
  median time to the progression of disease: 21 months
[1]; nonmethylation vs methylation, 95% CI 4.4 to 30.8
  time to progression, hazard ratio associated with nonmethylation: 10.8
[1]; subjects with methylated MGMT promoter tumors (N=19)
  partial or complete response to carmustine: 63%
[1]; subjects with unmethylated MGMT promoter tumors (N=28)
  partial or complete response to carmustine: 4%
[1]; unmethylated (N=28)
  Complete response, % (95% CI): 0 (0-12) %
  No Change, % (95% CI): 14 (4-33) %
  Partial response, % (95% CI): 4 (0-18) %
  Progression, % (95% CI): 82 (63-94) %
[1]; unmethylated gliomas
  median time to the progression of disease: 8 months

## Nc1nc(OCc2ccccc2)c2nc[nH]c2n1 [O^6-benzylguanine]
[2]
  effect on MGMT enzyme: inactivates the enzyme
[3]
  effect on sensitivity to cyclophosphamide metabolites: increase sensitivity to cyclophosphamide metabolites
[3]; in vitro and in vivo
  effect on response to alkyl nitrosoureas: enhance the response to alkyl nitrosoureas in vitro and in vivo

## O=P1(N(CCCl)CCCl)NCCCO1 (stereo not shown) [cyclophosphamide]
[4]; [5]
  CR (complete remission): 77%
  NR: 10%
  PR (partial remission): 13%
[4]; [6]
  NR: 22%
  PCR (complete remission): 63%
  PR (partial remission): 15%
[4]; univariate, 95% CI 1.2 to 7.5, p=0.01
  time to death, hazard ratio for non-methylation: 2.8
[4]; univariate, 95% CI 1.3 to 5.8, p=0.005
  disease progression, hazard ratio without vs with methylation: 2.6
